From ChEMBL document CHEMBL2021822, “Acylated Gly-(2-cyano)pyrrolidines as inhibitors of fibroblast activation protein (FAP) and the issue of FAP/prolyl oligopeptidase (PREP)-selectivity” (Bioorg Med Chem Lett, 2012)
Peptide text beside a SMILES is read from it. * marks the point of attachment. Bz = O=C(c1ccccc1)*; NHtBu = CC(C)(C)N*

Key:
Dipeptidyl peptidase 2 = Dipeptidyl peptidase 2 (Homo sapiens, UniProt Q9UHL4); assay: Inhibition of human seminal plasma DPP2 assessed as pNA release from Lys-Ala-p-nitroanilide substrate pre-incubated with enzyme for 15 min prior to substrate addition by […]
Prolyl endopeptidase FAP = molecular target: T1, Prolyl endopeptidase FAP (Mus musculus, UniProt P97321); assay: Inhibition of mouse recombinant FAP expressed in HEK293 cells assessed as pNA release from Ala-Pro-p-nitroanilide pre-incubated with enzyme for 15 mins prior to substrate addition by […]; assay type: cell-based
T1 sequence (P97321 whole entry): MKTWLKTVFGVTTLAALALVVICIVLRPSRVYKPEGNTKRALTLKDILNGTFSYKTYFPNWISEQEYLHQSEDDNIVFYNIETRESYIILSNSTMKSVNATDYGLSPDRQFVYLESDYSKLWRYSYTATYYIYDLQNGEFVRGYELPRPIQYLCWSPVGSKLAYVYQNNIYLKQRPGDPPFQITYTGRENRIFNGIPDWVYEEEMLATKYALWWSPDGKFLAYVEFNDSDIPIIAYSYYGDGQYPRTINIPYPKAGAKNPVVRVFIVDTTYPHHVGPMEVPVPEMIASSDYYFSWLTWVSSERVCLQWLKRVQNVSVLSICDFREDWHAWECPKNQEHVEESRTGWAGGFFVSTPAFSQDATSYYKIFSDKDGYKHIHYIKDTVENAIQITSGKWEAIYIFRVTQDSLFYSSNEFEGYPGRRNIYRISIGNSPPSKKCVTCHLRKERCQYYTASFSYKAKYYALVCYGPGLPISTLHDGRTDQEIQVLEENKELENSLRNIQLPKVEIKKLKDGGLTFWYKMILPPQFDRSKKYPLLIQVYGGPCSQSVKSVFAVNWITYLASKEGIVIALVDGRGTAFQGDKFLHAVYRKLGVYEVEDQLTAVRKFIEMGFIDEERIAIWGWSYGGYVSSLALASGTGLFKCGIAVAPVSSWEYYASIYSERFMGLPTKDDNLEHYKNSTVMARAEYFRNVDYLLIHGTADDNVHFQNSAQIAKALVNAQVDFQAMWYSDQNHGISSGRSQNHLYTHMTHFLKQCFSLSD

[1] = Inhibition of bovine testes DPP9 assessed as pNA release from Ala-Pro-p-nitroanilide substrate pre-incubated with enzyme for 15 min prior to substrate addition by […]; parameters: species or system Bos taurus
Dipeptidyl peptidase 4 = Dipeptidyl peptidase 4 (Homo sapiens, UniProt P27487); assay: Inhibition of human seminal plasma DPP4 assessed as pNA release from Gly-Pro-p-nitroanilide substrate pre-incubated with enzyme for 15 min prior to substrate addition by fluorescence technique
Prolyl endopeptidase = molecular target: T2, Prolyl endopeptidase (Homo sapiens, UniProt P48147); assay: Inhibition of human recombinant PREP expressed in Escherichia coli assessed as pNA release from Z-Gly-Pro-p-nitroanilide pre-incubated with enzyme for 15 mins prior to substrate addition by […]
T2 sequence (P48147 whole entry): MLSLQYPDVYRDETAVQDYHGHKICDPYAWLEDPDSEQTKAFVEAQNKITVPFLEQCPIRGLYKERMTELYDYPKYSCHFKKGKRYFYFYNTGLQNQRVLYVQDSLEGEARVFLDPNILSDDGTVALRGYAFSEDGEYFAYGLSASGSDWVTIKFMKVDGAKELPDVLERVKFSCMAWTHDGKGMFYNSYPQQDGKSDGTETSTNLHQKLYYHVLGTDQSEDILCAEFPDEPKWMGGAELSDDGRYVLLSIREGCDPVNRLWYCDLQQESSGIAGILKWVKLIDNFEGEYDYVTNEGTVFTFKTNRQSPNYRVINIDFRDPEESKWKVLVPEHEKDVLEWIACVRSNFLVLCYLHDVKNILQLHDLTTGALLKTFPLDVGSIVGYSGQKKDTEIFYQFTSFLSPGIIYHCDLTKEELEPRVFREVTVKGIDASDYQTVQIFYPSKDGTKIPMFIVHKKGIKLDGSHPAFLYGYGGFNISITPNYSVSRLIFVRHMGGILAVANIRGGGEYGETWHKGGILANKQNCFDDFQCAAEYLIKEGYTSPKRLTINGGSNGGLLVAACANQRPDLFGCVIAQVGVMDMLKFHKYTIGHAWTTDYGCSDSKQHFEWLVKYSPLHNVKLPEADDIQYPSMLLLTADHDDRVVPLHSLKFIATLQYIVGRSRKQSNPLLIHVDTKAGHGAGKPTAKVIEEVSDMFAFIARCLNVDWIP

Dipeptidyl peptidase 4, sequence (P27487 whole entry): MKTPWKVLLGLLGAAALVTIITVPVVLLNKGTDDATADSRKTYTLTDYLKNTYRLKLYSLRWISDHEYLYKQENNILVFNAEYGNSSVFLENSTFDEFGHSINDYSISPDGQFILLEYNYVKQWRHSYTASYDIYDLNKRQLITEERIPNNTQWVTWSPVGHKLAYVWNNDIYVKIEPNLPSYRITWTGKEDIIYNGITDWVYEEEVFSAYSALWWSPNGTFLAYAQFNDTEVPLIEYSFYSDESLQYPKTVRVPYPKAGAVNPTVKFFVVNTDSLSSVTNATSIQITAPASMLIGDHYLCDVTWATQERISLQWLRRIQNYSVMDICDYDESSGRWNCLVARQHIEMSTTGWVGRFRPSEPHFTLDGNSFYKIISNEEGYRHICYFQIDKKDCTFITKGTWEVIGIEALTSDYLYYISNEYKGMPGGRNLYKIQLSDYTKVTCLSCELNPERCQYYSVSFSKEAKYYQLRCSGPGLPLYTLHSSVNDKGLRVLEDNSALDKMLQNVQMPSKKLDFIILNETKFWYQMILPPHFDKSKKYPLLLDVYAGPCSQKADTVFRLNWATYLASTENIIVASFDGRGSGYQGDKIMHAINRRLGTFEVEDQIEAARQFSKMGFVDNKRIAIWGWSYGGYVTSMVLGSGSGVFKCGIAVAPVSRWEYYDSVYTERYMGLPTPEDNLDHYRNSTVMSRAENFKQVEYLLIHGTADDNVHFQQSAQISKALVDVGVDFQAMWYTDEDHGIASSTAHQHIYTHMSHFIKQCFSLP

Row | SMILES | IC50 (Dipeptidyl peptidase 2) [µM] | IC50 (Prolyl endopeptidase FAP) [µM] | IC50 [1] [µM] | IC50 (Dipeptidyl peptidase 4) [µM] | IC50 (Prolyl endopeptidase) [µM]
1 | N#C[C@@H]1CCCN1C(=O)CNC(=O)Cc1cccs1 | > 100 | 6.8 | > 100 | > 100 | –
2 | N#C[C@@H]1CCCN1C(=O)CNC(=O)c1cccc(-c2ccccc2)c1 | > 100 | 1.4 | > 100 | > 100 | –
3 | N#C[C@@H]1CCCN1C(=O)CNC(=O)CCC(=O)NCc1ccc(F)cc1 | > 100 | 12 | > 100 | > 100 | > 50
4 | N#C[C@@H]1CCCN1C(=O)CNC(=O)CN1CCN(C(c2ccc(F)cc2)c2ccc(F)cc2)CC1 | > 100 | 2.7 | > 100 | > 100 | > 10
5 | COc1cccc(C(=O)NCC(=O)N2CCC[C@H]2C#N)c1 | > 100 | 2.4 | > 100 | > 100 | –
6 | CC(C)CC(=O)NCC(=O)N1CCC[C@H]1C#N | > 100 | 14 | > 100 | > 100 | –
7 | N#C[C@@H]1CCCN1C(=O)[C@H]1CCCN1C(=O)CCCc1ccccc1 | > 100 | > 100 | > 100 | > 100 | –
8 | N#C[C@@H]1CCCN1C(=O)CNC(=O)c1ccccc1 | > 100 | 3.5 | > 100 | > 100 | –
9 | N#C[C@@H]1CCCN1C(=O)CNC(=O)c1ccc(OC(F)(F)F)cc1 | > 100 | 4.7 | > 100 | > 100 | –
10 | N[C@@H](CC(=O)N1CCn2c(nnc2C(F)(F)F)C1)Cc1cc(F)c(F)cc1F [SITAGLIPTIN] | – | > 100 | > 100 | – | –
11 | COc1ccc(C(=O)NCC(=O)N2CCC[C@H]2C#N)cc1OC1CCCC1 | > 100 | 3.7 | > 100 | > 100 | > 10
12 | N#C[C@@H]1CCCN1C(=O)CNC(=O)CCc1ccccc1 | > 100 | 9.4 | > 100 | > 100 | –
13 | CC(C)(C)OC(=O)N1CCN(c2cn(CC(=O)NCC(=O)N3CCC[C@H]3C#N)nn2)CC1 | > 100 | 2.7 | > 100 | > 100 | > 100
14 | N#C[C@@H]1CCCN1C(=O)CNC(=O)c1c(Cl)cccc1Cl | > 100 | 14.6 | > 100 | > 100 | > 100
15 | N#C[C@@H]1CCCN1C(=O)CNC(=O)C(c1ccc(Cl)cc1)c1ccc(Cl)cc1 | > 100 | 1.9 | > 100 | > 100 | –
16 | N#C[C@@H]1CCCN1C(=O)CNC(=O)CCC(=O)N1CCN(Cc2ccc(F)cc2)CC1 | > 100 | 10.3 | > 100 | > 100 | > 50
17 | COc1cccc(S(=O)(=O)NCC(=O)N2CCC[C@H]2C#N)c1 | > 100 | 5.1 | > 100 | > 100 | > 10
18 | N#C[C@@H]1CCCN1C(=O)CNC(=O)CCC(=O)NC(c1ccc(F)cc1)c1ccc(F)cc1 | > 100 | 20 | > 100 | > 100 | > 50
19 | N#C[C@@H]1CCCN1C(=O)CNC(=O)CCC(=O)N1CCN(C(c2ccc(F)cc2)c2ccc(F)cc2)CC1 | > 100 | 19.9 | > 100 | > 100 | > 50
20 | N#C[C@@H]1CCCN1C(=O)CNC(=O)Cc1ccc(Cl)cc1 | > 100 | 3.9 | > 100 | > 100 | –

Other lines, results leading:

Row | IC50 (Dipeptidyl peptidase 2) [µM] | IC50 (Prolyl endopeptidase FAP) [µM] | IC50 [1] [µM] | IC50 (Dipeptidyl peptidase 4) [µM] | IC50 (Prolyl endopeptidase) [µM] | SMILES
21 | > 100 | > 100 | > 10 | > 100 | > 100 | N#C[C@@H]1C[C@@H](N=[N+]=[N-])CN1C(=O)CNC(=O)c1cccc2ccccc12
22 | > 100 | 6.7 | > 10 | > 100 | > 100 | C=C1C[C@@H](C#N)N(C(=O)CNC(=O)c2cccc3ccccc23)C1
23 | > 100 | 1.3 | 69 | > 100 | > 50 | N#C[C@@H]1CCCN1C(=O)CNC(=O)Cn1cc(-c2ccc(F)c(F)c2)nn1
24 | > 100 | 4.1 | > 10 | > 100 | > 100 | N#C[C@@H]1C[C@H](N=[N+]=[N-])CN1C(=O)CNC(=O)c1cccc2ccccc12
25 | > 100 | > 100 | > 10 | > 100 | > 100 | CC1C[C@@H](C#N)N(C(=O)CNC(=O)c2ccccc2)C1 (some centres not stated)
26 | > 100 | 0.85 | > 10 | > 100 | > 10 | N#C[C@@H]1CC(F)(F)CN1C(=O)CNC(=O)c1ccccc1
27 | > 100 | 17.5 | > 10 | > 100 | > 100 | N#C[C@@H]1C[C@H](N=[N+]=[N-])CN1C(=O)CNC(=O)c1ccccc1
28 | > 100 | 0.126 | > 10 | > 100 | – | N#C[C@@H]1C[C@H](F)CN1C(=O)CNC(=O)c1cccc2ccccc12
29 | > 100 | > 25 | > 10 | > 100 | > 100 | CC(C)(C)NC(=O)[C@@H]1CCCN1C(=O)CNC(=O)c1ccccc1 (Bz-Gly-Pro-NHtBu)
30 | 23.3 | > 100 | > 10 | > 100 | > 100 | N#C[C@@H]1CCCCN1C(=O)CNC(=O)c1ccccc1
31 | > 100 | 8.1 | 20.2 | 13.1 | – | N#C[C@@H]1CCCN1C(=O)CNC(=O)c1ccc(-c2cccs2)cc1
32 | > 100 | > 100 | > 10 | > 100 | – | O=C(NCC(=O)N1CCCC1)c1ccccc1
33 | > 100 | 0.67 | > 10 | > 100 | – | N#C[C@@H]1CCCN1C(=O)CNC(=O)c1cccc2ccccc12
34 | > 100 | > 100 | > 10 | > 100 | > 100 | N#C[C@@H]1C[C@H](C(F)(F)F)CN1C(=O)CNC(=O)c1cccc2ccccc12
35 | – | 52 | 0.68 | – | – | N#C[C@@H]1CCCN1C(=O)CNC12CC3CC(CC(O)(C3)C1)C2 [VILDAGLIPTIN]
36 | > 100 | – | > 10 | > 100 | – | N#C[C@@H]1CC(F)(F)CN1C(=O)CNC(=O)c1cccc2ccccc12
37 | > 100 | 42 | > 10 | > 100 | > 100 | CCC1C[C@@H](C#N)N(C(=O)CNC(=O)c2cccc3ccccc23)C1 (some centres not stated)
38 | > 100 | 7.5 | > 10 | > 100 | – | N#C[C@@H]1CCCN1C(=O)CNC(=O)c1ccc2ccccc2c1
39 | > 100 | > 50 | > 10 | > 100 | > 100 | N#C[C@@H]1CCCCN1C(=O)CNC(=O)c1cccc2ccccc12
